Assay results published in US20120100204A1, “TGF-Beta Stimulating Agent Compositions and Combinations” (TCP INNOVATIONS LTD, priority 2007, published 2012).
Marks after values point to notes of the source that are not given here.

Experiments:
TGF-beta activity = TGF-beta activity by effect on SMC proliferation (CPD) with and without neutralising anti-TGF-beta antibody; type: cell-based, human; conditions: 0 μM T, 72 hrs
Protocol: (1995) Cardiovasc. Res. 29:848-55). […] The cells were then incubated for either 24 hrs or 72 hrs depending on the experiment. All treatment conditions were established in triplicate. Finally, TGF-beta activity was estimated by the direct effects on smooth muscle cell proliferation within the assay. For these experiments, the test agents were added, in triplicate, to cells both in the presence and absence of a neutralising antibody to TGF-beta (AB-100-NA; […] R&D Systems). After 72 hrs incubation, the cells are washed and then released completely using 0.02% trypsin/EDTA (Gibco) at 37° C. for 10 mins, then counted manually using a haemocytometer. Importantly, the number of cells at 0 hrs must also be determined (using the same counting method, on a replicate set of three wells plated out specifically for the purpose). For each treatment condition, the TGF-beta-dependent inhibition of proliferation is expressed as the fold increase in the cumulative population doubling time in the absence of the neutralising antibody compared to the cumulative population doubling time in the presence of the neutralising antibody. […] Failure of either control led to the repeat of the experiment.

[1] = critical micelle concentration; type: physicochemical; conditions: in the presence of 20% foetal calf serum
DBA/1 mice = assay: collagen-induced arthritis, footpad thickness; type: in vivo; conditions: from the booster injection onwards, Tamoxifen 1 mg/kg/day p.o, aspirin 30 mg/kg/day p.o
Protocol: (§1) Collagen-induced arthritis was induced in adult male DBA/1 mice as previously described (Courtenay et al. (1980) Nature 283:666-8). Adult (12 week old) male DBA/1 mice were divided into groups of six animals. Mice received 100 μg per mouse of bovine type II collagen (Sigma) in Freunds Complete Adjuvant (FCA) by the subcutaneous route, while a control group received an identical injection of type I collagen in FCA. Twenty-one days later, all groups of mice received an intraperitoneal booster injection containing 100 μg per mouse of the same collagen type as previously, but in the absence of adjuvant. […] Foodpad thickness was determined each day using a digital caliper EC1507 (Moore & Wright) accurate to 0.01 mm. The thickness of each footpad was determined three times on each day by a single operator blind to the treatment condition of the mouse, and the footpad thickness of each mouse on each day was reported as the mean for the three measurements for all four paws. Errors represent the standard error of the mean among the six animals in each group.

[2] = tested on: anti-collagen type II antibodies; assay: direct ELISA for anti-collagen type II antibodies in serum of collagen-induced arthritis mice; type: in vivo; conditions: day 39
Protocol: as §1
A direct ELISA for anti-collagen type II antibodies was used as an alternative assessment of the autoimmune response. Bovine type II collagen was coated onto Maxisorp 96-well ELISA plate wells (Nunc) at 1 μg/well in 50 μl of 50 mM sodium carbonate pH9.0 for 2 hours at 4° C. Wells were blocked with 5% Tween-20/5% sucrose in phosphate-buffered saline for 1 hour at room temperature. Mouse serum at various dilutions was incubated with the collagen-coated wells for 2 hours at room temperature. After three quick washes with tris-buffered saline +0.05% Tween-20, bound murine antibody was detected using a range of different anti-mouse IgG peroxidase conjugates (Pan-IgG A-9174 Sigma Chemical Co; IgA A-4789 Sigma Chemical Company; IgG1, G2a, G2b and G3 Southern Biotechnology) at 1:5000 dilution in tris-buffered saline +0.05% Tween-20 for 1 hour at room temperature. After three further washes, bound peroxidase label was visualised with K-BLUE chromogenic substrate (Skybio, Ltd.) for 20 minutes at room temperature, and the concentration of murine anti-collagen IgG in the serum quantitated by interpolating a standard curve constructed using known concentrations of the murine monoclonal anti-collagen type II IgG, CIICI (NIH Developmental Studies Hybridoma Bank).

[3] = translated from the relative risk; cited from earlier work
[4] = Tamoxifen treatment; cited from earlier work
[5] = pro-thrombin time (PTT) in men with coronary artery disease; conditions: men with coronary heart disease, 3 months, Tamoxifen 20 mg once daily, vs baseline
Protocol: Patients continued with all other medications (statins, ACE inhibitors, beta blockers, calcium channel blockers, diuretics etc), but no patients were taking warfarin or tirofiban.
The coagulant status of the individuals was assessed using the pro-thrombin time (PTT, measured clinically; Hinchingbrooke Hospital, UK). PTT was measured twice, one week apart, prior to beginning the study, and then after 90 days treatment. In each case, each patient acted as their own control, and the impact of the treatment on PTT was assessed using a paired Student's t-test comparing the PTT at 90 days with the average of the two baseline determinations.

Structure (SMILES) | TGF-beta activity: ratio of CPD in the absence and presence of neutralising anti-TGF-beta antibody (TGF-beta activity; 10 μM A) [fold] | TGF-beta activity: ratio of CPD in the absence and presence of neutralising anti-TGF-beta antibody (TGF-beta activity; 33 μM A) [fold] | TGF-beta activity: ratio of CPD in the absence and presence of neutralising anti-TGF-beta antibody (TGF-beta activity; 100 μM A) [fold] | TGF-beta activity: ratio of CPD in the absence and presence of neutralising anti-TGF-beta antibody (TGF-beta activity; 100 μM A, listed as A) [fold] | critical micelle concentration [1] | reduction of the maximal collagen-II induced footpad swelling (DBA/1 mice) [%] | Pan IgG binding to bovine collagen II, median concentration in serum ([2]; DBA/1 mice with collagen-induced arthritis) [µg/mL] | IgG1 binding to bovine collagen II, median absorbance ([2]; neat serum) | IgG2a binding to bovine collagen II, median absorbance ([2]; neat serum) | IgG2b binding to bovine collagen II, median absorbance ([2]; neat serum) | IgG3 binding to bovine collagen II, median absorbance ([2]; neat serum) | reduction in risk of death from myocardial infarction [3] [%] | endothelial function, a surrogate marker of atherosclerotic disease burden [4] | change in pro-thrombin time ([5]; Example 5, aspirin 75 mg once daily) | change in pro-thrombin time ([5]; Example 6, clopidogrel 75 mg once daily)
CC(=O)Oc1ccccc1C(=O)O [Aspirin, acetylsalicylic acid] | 1.05 ± 0.09 | 1.13 ± 0.17 | 1.25 | 1.25 ± 0.06 |  |  |  |  |  |  |  |  |  |  | 
CC/C(=C(\c1ccccc1)c1ccc(OCCN(C)C)cc1)c1ccccc1 [Tamoxifen] |  |  |  |  | approximately 50 μM | 36 | 181 | <0.05* | 0.081* | 0.482* | 0.069* | 33 | improved endothelial function | +17% | +19%
